This passage reports Activity results from ChEMBL document CHEMBL1143140, “RCAI-8, 9, 18, 19, and 49-52, conformationally restricted analogues of KRN7000 with an azetidine or a pyrrolidine ring: Their synthesis and bioactivity for mouse natural killer T cells to produce cytokines” (Bioorg Med Chem, 2008).

Calls of active or inactive are those of the source. No cut-off for these calls is given here.

What all share (format): functional, cell-based
Assay [1] relates to Splenocyte. Description: Induction of IL10 production in C57BL/6 mouse splenocytes after 48 hrs by cytometric bead array method.
For assay [2], the system named is Splenocyte. Nature of the assay: Induction of IFN-gamma production in C57BL/6 mouse splenocytes after 48 hrs by cytometric bead array method.
In assay [3] the test system is Splenocyte. Nature of the assay: Induction of IL4 production in C57BL/6 mouse splenocytes after 48 hrs by cytometric bead array method.
Assay [4] has as its system Splenocyte. Nature of the assay: Induction of IL13 production in C57BL/6 mouse splenocytes after 48 hrs by cytometric bead array method.
The test system of assay [5] is Splenocyte. Description: Induction of IL2 production in C57BL/6 mouse splenocytes after 48 hrs by cytometric bead array method.

With `CCCCCCCCCCCCCCCCCCCCCCCCCC(=O)N1[C@H](CCCCCCCCCCCCCC)[C@@H](O)[C@@H]1CO[C@@H]1O[C@H](CO)[C@H](O)[C@H](O)[C@H]1O`, the outcome in the assay on Splenocyte [1], in the assay on Splenocyte [2], in the assay with Splenocyte [3], in the assay with Splenocyte [4] and in the assay on Splenocyte [5] was inactive.
In the case of `CCCCCCCCCCCCCCCCCCCCCCCCCC(=O)N1[C@@H](CCCCCCCCCCCCCC)[C@@H](O)[C@@H]1CO[C@@H]1O[C@H](CO)[C@H](O)[C@H](O)[C@H]1O`, the outcome with Splenocyte [1], in the assay on Splenocyte [2], with Splenocyte [3], in the assay on Splenocyte [4] and with Splenocyte [5] was inactive.
Turning to `CCCCCCCCCCCCCCCCCCCCCCCCCC(=O)N1[C@H](CCCCCCCCCCCCC)C[C@@H](O)[C@@H]1CO[C@@H]1O[C@H](CO)[C@H](O)[C@H](O)[C@H]1O`, the result with Splenocyte [1], with Splenocyte [2], in the assay with Splenocyte [3], in the assay on Splenocyte [4] and in the assay with Splenocyte [5] was inactive.
Take `CCCCCCCCCCCCCCCCCCCCCCCCCC(=O)N1[C@@H](CCCCCCCCCCCCC)C[C@@H](O)[C@@H]1CO[C@H]1O[C@H](CO)[C@H](O)[C@H](O)[C@H]1O`: the outcome with Splenocyte [1], with Splenocyte [2], in the assay with Splenocyte [3], with Splenocyte [4] and with Splenocyte [5] was inactive.
For `CCCCCCCCCCCCCCCCCCCCCCCCCC(=O)N1[C@H](CCCCCCCCCCCCCC)[C@@H](O)[C@@H]1CO[C@H]1O[C@H](CO)[C@H](O)[C@H](O)[C@H]1O`, the outcome in the assay on Splenocyte [1], in the assay on Splenocyte [2], in the assay on Splenocyte [3], in the assay with Splenocyte [4] and in the assay on Splenocyte [5] was inactive.
`CCCCCCCCCCCCCCCCCCCCCCCCCC(=O)N1[C@@H](CCCCCCCCCCCCC)C[C@@H](O)[C@@H]1CO[C@@H]1O[C@H](CO)[C@H](O)[C@H](O)[C@H]1O`: the outcome with Splenocyte [1], in the assay on Splenocyte [2], in the assay on Splenocyte [3], in the assay on Splenocyte [4] and with Splenocyte [5] was inactive.
On to `CCCCCCCCCCCCCCCCCCCCCCCCCC(=O)N1[C@H](CCCCCCCCCCCCC)C[C@@H](O)[C@@H]1CO[C@H]1O[C@H](CO)[C@H](O)[C@H](O)[C@H]1O`, for which the outcome in the assay on Splenocyte [1], in the assay with Splenocyte [2], with Splenocyte [3], in the assay on Splenocyte [4] and in the assay on Splenocyte [5] was Active.
On to `CCCCCCCCCCCCCCCCCCCCCCCCCC(=O)N1[C@@H](CCCCCCCCCCCCCC)[C@@H](O)[C@@H]1CO[C@H]1O[C@H](CO)[C@H](O)[C@H](O)[C@H]1O`, for which the outcome in the assay on Splenocyte [1], in the assay with Splenocyte [2], with Splenocyte [3], with Splenocyte [4] and in the assay with Splenocyte [5] was Active.
